Read-outs that look alike come from different tables or passages of the source.
How the values were obtained:
Assay type in all cases: cell-based
HIV-1 (IIIB) = assay: Antiviral assay in MT-4 cells; conditions: HIV-1 IIIB infected MT-4 cells, 5 days, Cell Titer Glo, read-out: MT4 EC50
Summary of the method: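 MT-4 cells infected with a 1:250 dilution of HIV-1 IIIB stock were incubated with serially diluted (1:3) compound for 5 days at 37 °C. Viability read by Cell Titer Glo luminescence; EC50 is the concentration giving 50% decrease in signal, from sigmoidal dose-response fits.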

MT-4 cells = assay: Cytotoxicity assay in MT-4 cells
Summary of the method: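 Uninfected MT-4 cells were incubated with 1:3 serially diluted compound in RPMI/10% FBS for 5 days at 37° C. Viability was read by CellTiter-Glo luminescence, with 10 μM puromycin as the baseline cytotoxicity control. Values are the concentration giving a 50% decrease in luminescence, from sigmoidal dose-response fits.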

pLai RLuc reporter virus = assay: HIV MT-4 serum shift antiviral reporter assay; conditions: 72 h, Renilla Glo
Summary of the method: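 MT-4 cells pre-infected with pLai RLuc virus for 2 h at 37 °C, then incubated 72 h at 37 °C with compound in medium (RPMI, 10% FBS) with or without 50% human serum; Renilla luminescence read. EC50 from sigmoidal fit; serum shift = EC50(HS/CCM)/EC50(CCM).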

[1] = uninfected MT-4 cells, 5 days, Cell Titer Glo, read-out: CC50

Compound	EC50 (HIV-1 (IIIB)) [nM]	CC50 (MT-4 cells) [nM]	EC50 (pLai RLuc reporter virus; HS/CCM: 50% human serum, read-out: RLUC 50% HS) [nM]	EC50 (pLai RLuc reporter virus; cell culture media (RPMI, 10% FBS), read-out: RLUC CCM) [nM]	CC50 (MT-4 cells; [1]) [nM]	EC50 (HIV-1 (IIIB); Human immunodeficiency virus 1, IIIB, MT4, 120 h) [nM]
C[C@@H]1CC[C@H](CF)N2CN1n1cc(C(=O)NCc3c(F)cc(F)cc3F)c(=O)c(O)c1C2=O [Example C51, (1S,2R,5R)-5-(fluoromethyl)-8-hydroxy-2-methyl-7,9-dioxo-N-(2,4,6-trifluorobenzyl)-2,3,4,5,7,9-hexahydro-1,6-methanopyrido[1,2-b][1,2,5]triazonine-10-carboxamide]	1.3	9810	408	2.3	–	–
C[C@@H]1[C@H]2C[C@H]2[C@H](C)N2CN1n1cc(C(=O)NCc3c(F)cc(F)cc3F)c(=O)c(O)c1C2=O [Example C88, (1aS,2R,3S,11S,11aR)-8-hydroxy-2,11-dimethyl-7,9-dioxo-N-(2,4,6-trifluorobenzyl)-1a,2,7,9,11,11a-hexahydro-1H-3,10-methanocyclopropa[g]pyrido[1,2-b][1,2,5]triazonine-6-carboxamide]	1.1	–	–	–	34300	–
C[C@@H]1N2CN([C@@H](C)CC1(F)F)n1cc(C(=O)NCc3ccc(F)cc3F)c(=O)c(O)c1C2=O [Example C59, (1S,2S,5S)—N-(2,4-difluorobenzyl)-4,4-difluoro-8-hydroxy-2,5-dimethyl-7,9-dioxo-2,3,4,5,7,9-hexahydro-1,6-methanopyrido[1,2-b][1,2,5]triazonine-10-carboxamide]	–	–	–	–	50000	2.8
(1S,2R,5S)—N-(2,4-difluorobenzyl)-8-hydroxy-2,3,5-trimethyl-7,9-dioxo-2,5,7,9-tetrahydro-1,6-methanopyrido[1,2-b][1,2,5]triazonine-10-carboxamide [Example C62]	1.4	50000	–	–	–	–
C[C@@H]1CCCCN2CN1n1cc(C(=O)NCc3ccc(F)cc3F)c(=O)c(O)c1C2=O [Example C15, (1R,2R)—N-(2,4-difluorobenzyl)-9-hydroxy-2-methyl-8,10-dioxo-3,4,5,6,8,10-hexahydro-2H-1,7-methanopyrido[1,2-b][1,2,5]triazecine-11-carboxamide]	1.9	–	–	–	9970	–
C[C@@H]1/C=C\C[C@@H](C)N2CN1C(=O)c1c(O)c(=O)c(C(=O)NCc3c(F)cc(F)cc3F)cn12 [Example C18, (1S,2R,6R,Z)-9-hydroxy-2,6-dimethyl-8,10-dioxo-N-(2,4,6-trifluorobenzyl)-3,6,8,10-tetrahydro-2H-1,7-methanopyrido[1,2-b][1,2,5]triazecine-11-carboxamide]	4.3	13400	–	–	–	–
C[C@H]1C=CC(C)(C)N2CN1C(=O)c1c(O)c(=O)c(C(=O)NCc3c(F)cc(F)cc3F)cn12 [Example C48, (1S,5S)-8-hydroxy-2,2,5-trimethyl-7,9-dioxo-N-(2,4,6-trifluorobenzyl)-2,5,7,9-tetrahydro-1,6-methanopyrido[1,2-b][1,2,5]triazonine-10-carboxamide]	1.5	–	–	–	50000	–
C[C@@H]1C(F)=C[C@H](C)N2CN1n1cc(C(=O)NCc3c(F)cc(F)cc3F)c(=O)c(O)c1C2=O [Example C36, (1S,2R,5S)-3-fluoro-8-hydroxy-2,5-dimethyl-7,9-dioxo-N-(2,4,6-trifluorobenzyl)-2,5,7,9-tetrahydro-1,6-methanopyrido[1,2-b][1,2,5]triazonine-10-carboxamide]	1.6	–	–	–	16600	–
C[C@H]1/C=C\C[C@H](C)N2CN1C(=O)c1c(O)c(=O)c(C(=O)NCc3c(F)cc(F)cc3F)cn12 [Example C20, (1S,2S,6S,Z)-9-hydroxy-2,6-dimethyl-8,10-dioxo-N-(2,4,6-trifluorobenzyl)-3,6,8,10-tetrahydro-2H-1,7-methanopyrido[1,2-b][1,2,5]triazecine-11-carboxamide]	3.5	–	–	–	16600	–
